Assay results reported in ChEMBL document CHEMBL1201862, “PubChem BioAssay data set” (2004).
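Interpolation was linear, between the two tested concentrations surrounding the appropriate level; five concentrations were tested over 48 hours in 96-well plates. GI50: concentration for 50% inhibition of growth.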 The source made the active and inactive calls. Cut-off read from the data, not from the text of the source: active = GI50 up to about 1.1 µM and inactive = higher.

What was measured:
Experiment in all cases: NCI tumour cell line growth inhibition, 48 h
EKVX = system: EKVX
HCT-116 = system: HCT-116
HCT-15 = system: HCT-15
HOP-62 = system: HOP-62
HOP-92 = system: HOP-92
HT-29 = system: HT-29
LOX IMVI = system: LOX IMVI
MOLT-4 = system: MOLT-4
Malme-3M = system: Malme-3M
NCI-H23 = system: NCI-H23
NCI-H522 = system: NCI-H522
RXF 393 = system: RXF 393
SF-268 = system: SF-268
SF-295 = system: SF-295
SF-539 = system: SF-539
SN12C = system: SN12C
SNB-75 = system: SNB-75
SW-620 = system: SW-620
TK-10 = system: TK-10
U-251 = system: U-251

SMILES	GI50 (EKVX)	GI50 (HCT-116)	GI50 (HCT-15)	GI50 (HOP-62)	GI50 (HOP-92)	GI50 (HT-29)	GI50 (LOX IMVI)	GI50 (MOLT-4)	GI50 (Malme-3M)	GI50 (NCI-H23)	GI50 (NCI-H522)	GI50 (RXF 393)	GI50 (SF-268)	GI50 (SF-295)	GI50 (SF-539)	GI50 (SN12C)	GI50 (SNB-75)	GI50 (SW-620)	GI50 (TK-10)	GI50 (U-251)
O=C1C2C(C(=O)N1O)N(Cc1ccccc1)C(=O)N2Cc1ccccc1 (stereo not given)	> 100 µM (inactive)	> 100 µM (inactive)	> 100 µM	> 100 µM (inactive)	> 100 µM (inactive)	> 100 µM (inactive)	> 100 µM (inactive)	> 100 µM (inactive)	> 100 µM (inactive)	> 100 µM (inactive)	> 100 µM (inactive)	> 100 µM (inactive)	> 100 µM (inactive)	> 100 µM (inactive)	> 100 µM (inactive)	> 100 µM (inactive)	> 100 µM (inactive)	> 100 µM (inactive)	> 100 µM (inactive)	> 100 µM (inactive)
COC(=O)C1CC23C=CCN4CC(C2C)C2(c5ccccc5NC12)C43 (stereo not given)	> 100 µM (inactive)	> 100 µM (inactive)	> 100 µM	> 100 µM (inactive)	> 100 µM (inactive)	> 100 µM (inactive)	> 100 µM (inactive)	> 100 µM (inactive)	> 100 µM (inactive)	> 100 µM (inactive)	> 100 µM (inactive)	> 100 µM (inactive)	> 100 µM (inactive)	> 100 µM (inactive)	> 100 µM (inactive)	> 100 µM (inactive)	87.7 µM (inactive)	> 100 µM (inactive)	> 100 µM (inactive)	> 100 µM (inactive)
CC(=O)Nc1ccc(S(=O)(=O)/N=C2\C=CC(=O)c3ccccc32)cc1	6 µM (inactive)	5.24 µM (inactive)	7.62 µM	8.83 µM (inactive)	5.07 µM (inactive)	13.6 µM (inactive)	2.04 µM (inactive)	0.428 µM (active)	3.65 µM (inactive)	4.22 µM (inactive)	14.5 µM (inactive)	6.38 µM (inactive)	8.02 µM (inactive)	7.29 µM (inactive)	7.66 µM (inactive)	4.92 µM (inactive)	5.4 µM (inactive)	6.62 µM (inactive)	19.9 µM (inactive)	5.81 µM (inactive)
CCOC(CN(C)C(=S)Nc1cccc2ccccc12)OCC	> 10 µM (inactive)	> 10 µM (inactive)	> 10 µM	> 10 µM (inactive)	5.51 µM (inactive)	> 10 µM (inactive)	> 10 µM (inactive)	> 10 µM (inactive)	> 10 µM (inactive)	> 10 µM (inactive)	> 10 µM (inactive)	> 10 µM (inactive)	> 10 µM (inactive)	> 10 µM (inactive)	> 10 µM (inactive)	> 10 µM (inactive)	> 10 µM (inactive)	> 10 µM (inactive)	> 10 µM (inactive)	> 10 µM (inactive)
CC(C)C(=O)Nc1nc2c(ncn2C2OC(CO)C(O)C2O)c(=O)[nH]1 (stereo not given)	> 100 µM (inactive)	> 100 µM (inactive)	> 100 µM	> 100 µM (inactive)	> 100 µM (inactive)	> 100 µM (inactive)	> 100 µM (inactive)	> 100 µM (inactive)	> 100 µM (inactive)	> 100 µM (inactive)	> 100 µM (inactive)	> 100 µM (inactive)	> 100 µM (inactive)	> 100 µM (inactive)	> 100 µM (inactive)	> 100 µM (inactive)	> 100 µM (inactive)	> 100 µM (inactive)	> 100 µM (inactive)	> 100 µM (inactive)
NC(=O)N1N=C2c3ccccc3OC[C@H]2[C@@H]1c1ccccc1	35.2 µM (inactive)	5.6 µM (inactive)	5.55 µM	23.8 µM (inactive)	13.8 µM (inactive)	27.6 µM (inactive)	26.1 µM (inactive)	29.5 µM (inactive)	21.1 µM (inactive)	22.6 µM (inactive)	3.3 µM (inactive)	2.72 µM (inactive)	9.86 µM (inactive)	4.21 µM (inactive)	3.92 µM (inactive)	23.9 µM (inactive)	16.6 µM (inactive)	4.99 µM (inactive)	52.4 µM (inactive)	5.14 µM (inactive)
CN(C)c1ccc2nc3c(ccc4ccccc43)[o+]c2c1	20.9 µM (inactive)	5.97 µM (inactive)	11.8 µM	19 µM (inactive)	18.3 µM (inactive)	15.3 µM (inactive)	6 µM (inactive)	2.99 µM (inactive)	12.9 µM (inactive)	14 µM (inactive)	2.52 µM (inactive)	13.3 µM (inactive)	15.8 µM (inactive)	15.5 µM (inactive)	18.2 µM (inactive)	17.1 µM (inactive)	17.5 µM (inactive)	3.2 µM (inactive)	17.3 µM (inactive)	16.1 µM (inactive)
